Measurements published in ChEMBL document CHEMBL3865826, “Synthesis and biological evaluation of a series of non-hemiacetal ester derivatives of artemisinin” (Eur J Med Chem, 2016).

What was measured:
[1] = Selectivity index, ratio of IC50 for CHO cells to IC50 for chloroquine-sensitive asexual erythrocyte stage form Plasmodium falciparum NF54; type: toxicity, cell-based; conditions: hamster, read-out: Ratio IC50
MCF7 = test: Selectivity index, ratio of IC50 for human WI38 cells to IC50 for human MCF7 cells; type: functional
Plasmodium falciparum [2] = test: Antiplasmodial activity against chloroquine-resistant asexual erythrocyte stage form Plasmodium falciparum Dd2 measured after 48 hrs by pLDH assay; type: functional; conditions: Dd2, 48 h
CHO = test: Selectivity index, ratio of IC50 for CHO cells to IC50 for human MCF7 cells; type: functional
[3] = Growth inhibition of human UACC62 cells measured after 24 hrs by SRB assay; type: functional, cell-based; conditions: UACC-62, 24 h
[4] = Selectivity index, ratio of IC50 for human MCF7 cells to IC50 for chloroquine-resistant asexual erythrocyte stage form Plasmodium falciparum Dd2; type: functional
Plasmodium falciparum [5] = test: Antiplasmodial activity against chloroquine-sensitive asexual erythrocyte stage form Plasmodium falciparum NF54 measured after 48 hrs by pLDH assay; type: functional; conditions: NF54, 48 h
[6] = Resistance index, ratio of IC50 for chloroquine-resistant asexual erythrocyte stage form Plasmodium falciparum Dd2 to IC50 for chloroquine-sensitive asexual erythrocyte stage form Plasmodium falciparum NF54; type: functional
[7] = Growth inhibition of human TK10 cells measured after 24 hrs by SRB assay; type: functional, cell-based; conditions: TK-10, 24 h
[8] = Cytotoxicity against CHO cells assessed as reduction in cell viability measured after 48 hrs by MTT assay; type: toxicity, cell-based, Cricetulus griseus; conditions: Chinese hamster
[9] = Cytotoxicity against human WI38 cells assessed as reduction in cell viability measured after 48 hrs by SRB assay; type: toxicity, cell-based, WI-38
[10] = Selectivity index, ratio of IC50 for human WI38 cells to IC50 for chloroquine-sensitive asexual erythrocyte stage form Plasmodium falciparum NF54; type: toxicity, cell-based, WI-38; conditions: read-out: Ratio IC50
[11] = Growth inhibition of human MCF7 cells measured after 24 hrs by SRB assay; type: functional, cell-based; conditions: MCF7, 24 h
[12] = Selectivity index, ratio of IC50 for human UACC62 cells to IC50 for chloroquine-resistant asexual erythrocyte stage form Plasmodium falciparum Dd2; type: functional, UACC-62
[13] = Thermal stability of the compound assessed as melting point by thermogravimetric analysis; type: physicochemical

Structure (SMILES) | selectivity ratio [1] | Ratio IC50 (MCF7) | IC50 (Plasmodium falciparum [2]) [µM] | Ratio IC50 (CHO) | IC50 [3] [µM] | Ratio IC50 [4] | IC50 (Plasmodium falciparum [5]) [µM] | Ratio IC50 [6] | IC50 [7] [µM] | IC50 at 48 h [8] [µM] | IC50 at 48 h [9] [µM] | selectivity ratio [10] | IC50 [11] [µM] | Ratio IC50 [12] | Tm [13] [°C]
CCCC(=O)OCC1(C)O[C@@H]2O[C@]3(C)CC[C@H]4[C@H](C)CC[C@@H]1[C@@]24OO3 (stereo partly specified) | > 5920 | >2 | 0.0069 | >2 | > 100 | 7768 | 0.0169 | 0.4 | > 100 | > 100 | > 100 | > 5920 | 53.6 |  | 
Cc1ccsc1C(=O)OCC1(C)O[C@@H]2O[C@]3(C)CC[C@H]4[C@H](C)CC[C@@H]1[C@@]24OO3 (stereo partly specified) | > 13900 | >15 | 0.0071 | >15 | 13.9 | 958 | 0.0072 | 1 | > 100 | > 100 | > 100 | > 13900 | 6.8 | 1958 | 
CC(=O)Oc1ccccc1C(=O)OCC1(C)O[C@@H]2O[C@]3(C)CC[C@H]4[C@H](C)CC[C@@H]1[C@@]24OO3 (stereo partly specified) | > 37000 | >10 | 0.0043 | >10 | 19 | 2442 | 0.0027 | 1.6 | > 100 | > 100 | > 100 | > 37000 | 10.5 | 4419 | 175.2
CCCCCC(=O)OCC1(C)O[C@@H]2O[C@]3(C)CC[C@H]4[C@H](C)CC[C@@H]1[C@@]24OO3 (stereo partly specified) | > 1660 | >2 | 0.0432 | >2 | > 100 | 1100 | 0.0601 | 0.7 | > 100 | > 100 | > 100 | > 1660 | 47.5 |  | 
C[C@@H]1CC[C@H]2C(C)(COC(=O)c3ccco3)O[C@@H]3O[C@]4(C)CC[C@@H]1[C@]32OO4 (stereo partly specified) | > 10900 |  | 0.0037 |  | > 100 |  | 0.0092 | 0.4 | > 100 | > 100 | > 100 | > 10900 | > 100 |  | 177.3
C=C1C(=O)O[C@@H]2C3O[C@]3(C)CC/C=C(\C)CC[C@@H]12 (stereo partly specified) |  |  |  |  | 15 |  |  |  | 6.4 |  |  |  | 5.8 |  | 
CO[C@H]1O[C@@H]2O[C@@]3(C)CC[C@H]4[C@H](C)CC[C@@H]([C@H]1C)[C@@]24OO3 [ARTEMETHER] | > 26300 |  | 0.0023 |  |  |  | 0.0038 | 0.6 |  | > 100 |  |  |  |  | 186
C[C@H]1[C@@H](O)O[C@@H]2O[C@@]3(C)CC[C@H]4[C@H](C)CC[C@@H]1[C@@]24OO3 [ARTENIMOL] | > 45500 |  | 0.0012 |  |  |  | 0.0022 | 0.6 |  | > 100 |  |  |  |  | 160
C[C@H]1[C@H](OC(=O)CCC(=O)O)O[C@@H]2O[C@@]3(C)CC[C@H]4[C@H](C)CC[C@@H]1[C@@]24OO3 [ARTESUNATE] | > 12500 |  | 0.0075 |  |  |  | 0.008 | 0.9 |  | > 100 | > 100 | > 12500 |  |  | 134.7
CC[C@H]1CN2CCc3cc(OC)c(OC)cc3[C@@H]2C[C@@H]1C[C@H]1NCCc2cc(OC)c(OC)cc21 [EMETINE] |  |  |  |  |  |  |  |  |  | 0.29 | 0.05 |  |  |  | 
